Results on three molecules are retold here after US6362172B1, “Water soluble prodrugs of azole compounds” (Bristol-Myers Squibb Company, priority 2000, dated 2002).

≈ marks a conversion by molar mass, not a printed value.

The nature of series [1]: aqueous solubility. The note with it: for solubility: aqueous; for solubility and stability of the crystalline salt: single polymorph crystalline solids.
Series [2] in a line: stability in solution.
Series [3] is described as follows: conversion of prodrug to parent drug in vivo.

For the molecule `C[C@@H](c1nc(-c2ccc(C#N)cc2)cs1)C(Cn1cncn1)(OCOP(=O)(O)O)c1ccc(F)cc1F` (stereo partly drawn) [Example 2, (2R,3R)-3-[4-(4-cyanophenyl)thiazol-2-yl]-2-(2,4-difluorophenyl)-1-(1H-1,2,4,- triazol-1-yl)-2-[(dihydrogenphosphonoxy)methoxy]butane], the solubility (commonly the concentration that dissolves in the medium under given conditions) in series [1] (pH 4.3, aqueous buffer) was 5000 to 6000 µg/mL (≈ 9.13 to 11 mM); in series [1] (pH 7, aqueous buffer), > 10000 µg/mL. In addition, the stability in solution result in series [2] is recorded as “stable in solution”. Besides, the “conversion to parent drug in vivo” value in series [3] is listed as “readily converted to parent drug in vivo”.

Take `C[C@@H](c1nc(-c2ccc(C#N)cc2)cs1)[C@@](Cn1cncn1)(OCOP(=O)(O)O)c1ccc(F)cc1F.NCCCC[C@H](N)C(=O)O.NCCCC[C@H](N)C(=O)O` [Example 3, Bis lysine salt of (2R,3R)-3-[4-(4-cyanophenyl)thiazol-2-yl]-2-(2,4-difluorophenyl)-1-(1H-1,2,4-triazol-1-yl)-2-[(dihydrogenphosphonoxy)methoxy]butane]: the “solubility and stability of the crystalline salt” value in series [1] was “good solubility and stability”.

With `CC(C)(C)N.C[C@@H](c1nc(-c2ccc(C#N)cc2)cs1)[C@@](Cn1cncn1)(OCOP(=O)(O)O)c1ccc(F)cc1F` [Example 4, Tert-butyl amine salt of (2R,3R)-3-[4-(4-cyanophenyl)thiazol-2-yl]-2-(2,4-difluorophenyl)-1-(1H-1,2,4-triazol-1-yl)-2-[(dihydrogenphosphonoxy)methoxy]butane], the “solubility and stability of the crystalline salt” value in series [1] is “good solubility and stability”.
